Data: ChEMBL document CHEMBL5131383, “Structure-based design, synthesis, and evaluation of inhibitors with high selectivity for PARP-1 over PARP-2” (Eur J Med Chem, 2022)
Active and inactive are the calls of the source. The calls are words filed in the database; no cut-off is given here.

What was measured:
[1] = biological target: T1, Poly [ADP-ribose] polymerase 2 (Homo sapiens, UniProt Q9UGN5); assay: Inhibition of human PARP2 using NAD+ as substrate at 5 nM incubated for 1 hr by ELISA relative to control
T1 sequence (Q9UGN5 whole entry): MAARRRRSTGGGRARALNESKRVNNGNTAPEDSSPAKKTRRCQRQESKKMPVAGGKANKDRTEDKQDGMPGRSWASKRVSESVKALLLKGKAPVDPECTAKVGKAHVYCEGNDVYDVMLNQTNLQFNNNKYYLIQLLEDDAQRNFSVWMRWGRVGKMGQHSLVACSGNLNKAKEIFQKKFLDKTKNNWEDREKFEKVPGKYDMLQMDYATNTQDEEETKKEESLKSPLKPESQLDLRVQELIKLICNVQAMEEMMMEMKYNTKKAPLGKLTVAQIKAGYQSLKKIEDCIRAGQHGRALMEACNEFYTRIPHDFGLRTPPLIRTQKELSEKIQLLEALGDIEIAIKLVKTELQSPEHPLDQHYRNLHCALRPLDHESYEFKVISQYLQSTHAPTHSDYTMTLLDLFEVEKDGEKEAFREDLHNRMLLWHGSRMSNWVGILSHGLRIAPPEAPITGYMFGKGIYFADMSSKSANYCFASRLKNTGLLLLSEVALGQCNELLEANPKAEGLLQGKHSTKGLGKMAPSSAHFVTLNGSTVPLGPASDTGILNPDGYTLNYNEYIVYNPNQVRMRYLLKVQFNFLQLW

[2] = biological target: T1, Poly [ADP-ribose] polymerase 2; assay: Inhibition of human PARP2 using NAD+ as substrate incubated for 1 hr by ELISA
[3] = biological target: T2, Poly [ADP-ribose] polymerase 1 (Homo sapiens, UniProt P09874); assay: Inhibition of human PARP1 using NAD+ as substrate incubated for 1 hr by ELISA
T2 sequence (P09874 whole entry): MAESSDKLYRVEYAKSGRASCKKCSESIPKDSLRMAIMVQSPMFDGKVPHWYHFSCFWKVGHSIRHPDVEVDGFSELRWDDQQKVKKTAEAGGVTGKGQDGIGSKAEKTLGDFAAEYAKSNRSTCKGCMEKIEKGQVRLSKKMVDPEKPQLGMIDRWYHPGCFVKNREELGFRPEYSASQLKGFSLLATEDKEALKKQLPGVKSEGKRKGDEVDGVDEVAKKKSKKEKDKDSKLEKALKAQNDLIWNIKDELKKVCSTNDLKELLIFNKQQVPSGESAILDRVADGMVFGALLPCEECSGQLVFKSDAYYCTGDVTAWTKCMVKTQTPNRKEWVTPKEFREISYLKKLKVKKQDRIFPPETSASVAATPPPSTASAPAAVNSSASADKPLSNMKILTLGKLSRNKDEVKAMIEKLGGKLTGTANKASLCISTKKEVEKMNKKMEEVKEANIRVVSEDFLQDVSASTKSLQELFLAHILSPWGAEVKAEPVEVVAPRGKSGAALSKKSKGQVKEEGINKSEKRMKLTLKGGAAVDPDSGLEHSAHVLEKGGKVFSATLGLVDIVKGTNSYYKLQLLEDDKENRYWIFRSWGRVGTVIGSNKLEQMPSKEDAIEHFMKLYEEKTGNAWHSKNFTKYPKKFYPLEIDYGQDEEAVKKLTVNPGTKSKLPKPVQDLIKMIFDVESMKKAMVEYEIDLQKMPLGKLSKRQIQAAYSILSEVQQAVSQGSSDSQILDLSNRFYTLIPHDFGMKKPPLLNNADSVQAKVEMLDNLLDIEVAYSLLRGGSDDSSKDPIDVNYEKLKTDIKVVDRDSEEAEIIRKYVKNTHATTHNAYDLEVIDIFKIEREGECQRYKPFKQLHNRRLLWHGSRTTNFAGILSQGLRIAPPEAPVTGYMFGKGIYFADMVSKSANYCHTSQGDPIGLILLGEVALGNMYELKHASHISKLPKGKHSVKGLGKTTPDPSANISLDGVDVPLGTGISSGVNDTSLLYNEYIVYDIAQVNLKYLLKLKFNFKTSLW

Homo sapiens = species on record: Homo sapiens; assay: Selectivity index, ratio of IC50 for human PARP2 to IC50 for human PARP1
[4] = biological target: T2, Poly [ADP-ribose] polymerase 1; assay: Inhibition of human PARP1 using NAD+ as substrate at 5 nM incubated for 1 hr by ELISA relative to control
MCF7 = assay: Antiproliferative activity against human MCF7 cells assessed as inhibition of cell growth incubated for 48 hrs by MTT assay; assay type: functional, cell-based; conditions: MCF7, 48 h
MX1 = assay: Antiproliferative activity against human BRCA mutant MX1 cells assessed as inhibition of cell growth incubated for 48 hrs by MTT assay; assay type: functional, cell-based; conditions: MX1, 48 h
A549 [5] = assay: Antiproliferative activity against human A549 cells assessed as inhibition of cell growth incubated for 48 hrs by MTT assay; assay type: functional, cell-based; conditions: A549, 48 h
Mus musculus = assay: In vivo inhibition of PARP1 in athymic BALB/c mouse xenografted with human BRCA1 mutant MDA-MB-436 cells assessed as prevention of PAR formation 50 mg/kg/day, po measured after 48 hrs by Western blot analysis; assay type: functional, organism-based
MDA-MB-436 = assay: Antitumor activity against human BRCA1 mutant MDA-MB-436 cells xenografted athymic BALB/c mouse assessed as inhibition of tumor volume at 50 mg/kg/day, po administered for 18 days and measured twice weekly; assay type: functional, organism-based; conditions: time 18.0 day
[6] = Toxicity athymic BALB/c mouse xenografted with human BRCA1 mutant MDA-MB-436 cells assessed as change in body weight at 50 mg/kg/day, po administered for 18 days and measured twice weekly; assay type: organism-based; conditions: in vivo, 432 h, time 18 day
A549 [7] = assay: […] human A549 cells assessed as reduction in PAR level measured after 48 hrs by Western blot analysis; assay type: functional, cell-based; conditions: dose 2.5-10 µM, DDE = dose-dependent effect

Row | SMILES | inhibition [1] | inhibition [4] | further results
1 | O=C1NCCc2c(-c3ccc(CN4CCN(CCO)CC4)cc3)[nH]c3cc(F)cc1c23 | 25.1% | 84.5% | IC50 [2]: 6.68 nM; IC50 [3]: 1.54 nM; Ratio IC50 (Homo sapiens): 4.3
2 | O=C1NCCc2c(-c3ccc(N4CCNCC4)cc3)[nH]c3cc(F)cc1c23 | 55.8% | 83.9% | 
3 | CC(C)(C)OC(=O)NC1CCCN(Cc2cccc(-c3[nH]c4cc(F)cc5c4c3CCNC5=O)c2)C1 (stereo unspecified) | 43.2% | 55.6% | 
4 | CC1(N)CCN(Cc2cccc(-c3[nH]c4cc(F)cc5c4c3CCNC5=O)c2)CC1 | 21.3% | 79.2% | 
5 | O=C1NCCc2c(-c3ccc(B(O)O)cc3)[nH]c3cc(F)cc1c23 | 42.7% | 67.4% | 
6 | NC1CCN(Cc2ccc(-c3[nH]c4cc(F)cc5c4c3CCNC5=O)cc2)CC1 | 63.8% | 95.7% | IC50 (MCF7): 59500 nM; IC50 [2]: 4.21 nM; IC50 [3]: 0.41 nM; IC50 (MX1): 65400 nM; IC50 (A549 [5]): 85900 nM
7 | CC(=O)N1CCN(Cc2ccc(-c3[nH]c4cc(F)cc5c4c3CCNC5=O)cc2)CC1 | 28.7% | 82.9% | IC50 [2]: 6.4 nM; IC50 [3]: 1.31 nM; Ratio IC50 (Homo sapiens): 4.9
8 | CN1CCN(Cc2ccc(-c3[nH]c4cc(F)cc5c4c3CCNC5=O)cc2)CC1 | 42% | 83.1% | 
9 | COC(=O)c1ccc(-c2[nH]c3cc(F)cc4c3c2CCNC4=O)cc1 | 50.1% | 83.3% | 
10 | COc1ccc(-c2[nH]c3cc(F)cc4c3c2CCNC4=O)cc1 | 49.4% | 82.8% | 
11 | CC(=O)N1CCN(Cc2cccc(-c3[nH]c4cc(F)cc5c4c3CCNC5=O)c2)CC1 | 30.4% | 49.8% | 
12 | CC(C)(C)OC(=O)NC1CCCN(Cc2ccc(-c3[nH]c4cc(F)cc5c4c3CCNC5=O)cc2)C1 (stereo unspecified) | 34.8% | 90.1% | 
13 | COc1cccc(-c2[nH]c3cc(F)cc4c3c2CCNC4=O)c1 | 35.9% | 72% | 
14 | CNCc1ccc(-c2[nH]c3cc(F)cc4c3c2CCNC4=O)cc1 [RUCAPARIB] | 77.6% | 98% | IC50 (MCF7): 6610 nM; inhibition (Mus musculus): Active; IC50 (MX1): 6510 nM; IC50 (A549 [5]): 32200 nM
15 | C[C@@H]1CN(Cc2cccc(-c3[nH]c4cc(F)cc5c4c3CCNC5=O)c2)CCN1C(=O)OC(C)(C)C | 49.4% | 16.3% | 
16 | C[C@@H]1CN(Cc2ccc(-c3[nH]c4cc(F)cc5c4c3CCNC5=O)cc2)CCN1C(=O)OC(C)(C)C | 20.3% | 31.2% | 
17 | O=C(O)c1cccc(-c2[nH]c3cc(F)cc4c3c2CCNC4=O)c1 | 43.3% | 44.9% | 
18 | O=C1NCCc2c(-c3cccc(CN4CCN(C(=O)C5CC5)CC4)c3)[nH]c3cc(F)cc1c23 | 20.7% | 46.1% | 
19 | O=Cc1ccc(-c2[nH]c3cc(F)cc4c3c2CCNC4=O)cc1 | 57.8% | 93.6% | 
20 | CCOC(=O)C1CCCN(Cc2ccc(-c3[nH]c4cc(F)cc5c4c3CCNC5=O)cc2)C1 (stereo unspecified) | 36.3% | 86.5% | 
21 | O=C1NCCc2c(-c3ccc(OCc4ccccc4)cc3)[nH]c3cc(F)cc1c23 | 36.4% | 50.6% | 
22 | CN1CCN(Cc2cccc(-c3[nH]c4cc(F)cc5c4c3CCNC5=O)c2)CC1 | 29% | 61.2% | 
23 | O=C1NCCc2c(-c3cccc(CN4CCn5c(nnc5C(F)(F)F)C4)c3)[nH]c3cc(F)cc1c23 | 24.4% | 48.4% | 
24 | Cc1cc(N2CCN(Cc3ccc(-c4[nH]c5cc(F)cc6c5c4CCNC6=O)cc3)CC2)n(-c2ccccc2)n1 | 29.7% | 47.2% | 
25 | CC(C)(C)OC(=O)NC1CCN(Cc2ccc(-c3[nH]c4cc(F)cc5c4c3CCNC5=O)cc2)CC1 | 42.4% | 82% | IC50 [2]: 8.04 nM; IC50 [3]: 1.17 nM; Ratio IC50 (Homo sapiens): 6.9
26 | CC(C)(C)OC(=O)N1CCN(Cc2ccc(-c3[nH]c4cc(F)cc5c4c3CCNC5=O)cc2)CC1 | 33.8% | 74.2% | 
27 | O=C1NCCc2c(-c3ccc(CN4CCN(c5ncccn5)CC4)cc3)[nH]c3cc(F)cc1c23 | 47% | 93.7% | IC50 [2]: 5.71 nM; IC50 [3]: 1.19 nM; Ratio IC50 (Homo sapiens): 4.8

Row | SMILES | inhibition [1] | inhibition [4] | further results
28 | O=C1NCCc2c(-c3ccc([N+](=O)[O-])cc3)[nH]c3cc(F)cc1c23 | 55.5% | 88.7% | 
29 | CC(C)N1CCN(Cc2ccc(-c3[nH]c4cc(F)cc5c4c3CCNC5=O)cc2)CC1 | 36.5% | 83.9% | 
30 | CC1(N)CCN(Cc2ccc(-c3[nH]c4cc(F)cc5c4c3CCNC5=O)cc2)CC1 | 45.2% | 89.9% | 
31 | C[C@@H]1CN(Cc2ccc(-c3[nH]c4cc(F)cc5c4c3CCNC5=O)cc2)CCN1 | 58.8% | 90.4% | IC50 (MCF7): 46500 nM; IC50 [2]: 2.91 nM; Activity (MDA-MB-436): Active; Activity [6]: Toxic; IC50 [3]: 0.66 nM; inhibition (Mus musculus): Active; IC50 (MX1): 16800 nM; IC50 (A549 [5]): 48200 nM
32 | CCN(CC)Cc1ccc(-c2[nH]c3cc(F)cc4c3c2CCNC4=O)cc1 | 35.2% | 94% | IC50 (MCF7): 80600 nM; IC50 [2]: 11.2 nM; IC50 [3]: 0.61 nM; IC50 (MX1): 49300 nM; IC50 (A549 [5]): 75800 nM
33 | O=C1NCCc2c(-c3ccc(CN4CCCC(F)(F)C4)cc3)[nH]c3cc(F)cc1c23 | 20.5% | 69.3% | 
34 | Nc1cccc(-c2[nH]c3cc(F)cc4c3c2CCNC4=O)c1 | 58.9% | 76.3% | 
35 | O=C(O)c1ccc(-c2[nH]c3cc(F)cc4c3c2CCNC4=O)cc1 | 48.1% | 43.2% | 
36 | Cc1ccc(-c2[nH]c3cc(F)cc4c3c2CCNC4=O)cc1[N+](=O)[O-] | 54.6% | 93.2% | 
37 | O=C1NCCc2c(-c3ccc(CN4CCN(C(=O)C5CC5)CC4)cc3)[nH]c3cc(F)cc1c23 | 44.1% | 85% | 
38 | CC(C)(C)OC(=O)NC1CCN(Cc2cccc(-c3[nH]c4cc(F)cc5c4c3CCNC5=O)c2)CC1 | 40.7% | 76.5% | 
39 | O=C1NCCc2c(-c3cccc(CN4CCC(F)(F)CC4)c3)[nH]c3cc(F)cc1c23 | 24.3% | 38.4% | 
40 | O=C1NCCc2c(-c3ccc(CN4CCC(F)(F)CC4)cc3)[nH]c3cc(F)cc1c23 | 18% | 68.8% | 
41 | NC1CCN(Cc2cccc(-c3[nH]c4cc(F)cc5c4c3CCNC5=O)c2)CC1 | 15.3% | 85.8% | IC50 (MCF7): 124000 nM; IC50 [2]: 61.9 nM; Activity (MDA-MB-436): Active; Activity [6]: Non-Toxic; IC50 [3]: 0.96 nM; inhibition (Mus musculus): Active; IC50 (MX1): 9460 nM; Activity (A549 [7]): Dde; IC50 (A549 [5]): 106000 nM
42 | CC1(NC(=O)OC(C)(C)C)CCN(Cc2cccc(-c3[nH]c4cc(F)cc5c4c3CCNC5=O)c2)CC1 | 41.8% | 59.7% | 
43 | C[C@@H]1CN(Cc2cccc(-c3[nH]c4cc(F)cc5c4c3CCNC5=O)c2)CCN1 | 50.2% | 78.3% | 
44 | NC1CCCN(Cc2cccc(-c3[nH]c4cc(F)cc5c4c3CCNC5=O)c2)C1 (stereo unspecified) | 13.1% | 64.8% | 
45 | O=C1NCCc2c(-c3ccc(CN4CCn5c(nnc5C(F)(F)F)C4)cc3)[nH]c3cc(F)cc1c23 | 23.5% | 69.1% | 
46 | CC(C)N1CCN(Cc2cccc(-c3[nH]c4cc(F)cc5c4c3CCNC5=O)c2)CC1 | 29% | 56.6% | 
47 | O=C1NCCc2c(-c3ccc(N4CCOCC4)cc3)[nH]c3cc(F)cc1c23 | 54.2% | 88.9% | 
48 | NC1CCCN(Cc2ccc(-c3[nH]c4cc(F)cc5c4c3CCNC5=O)cc2)C1 (stereo unspecified) | 33.5% | 87.9% | 
49 | CC1(NC(=O)OC(C)(C)C)CCN(Cc2ccc(-c3[nH]c4cc(F)cc5c4c3CCNC5=O)cc2)CC1 | 40.5% | 87% | 
50 | O=C1NCCc2c(-c3ccc(CN4CCN(c5cccc(C(F)(F)F)c5)CC4)cc3)[nH]c3cc(F)cc1c23 | 17.3% | 22.1% | 
51 | Nc1ccc(-c2[nH]c3cc(F)cc4c3c2CCNC4=O)cc1 | 46% | 84.5% | 
52 | CC(C)(C)c1ccc(-c2[nH]c3cc(F)cc4c3c2CCNC4=O)cc1 | 42.3% | 56.2% | 
53 | O=C1NCCc2c(-c3ccc(CN4CCN(C(c5ccccc5)c5ccccc5)CC4)cc3)[nH]c3cc(F)cc1c23 | 36.8% | 26.5% | 
54 | N#Cc1ccc(-c2[nH]c3cc(F)cc4c3c2CCNC4=O)cc1 | 53.4% | 94.1% | 
